Several values for one entry are separate records, joined by “and”; a condition that tells them apart may be missing. Equal values may be shown once. Read-outs that look alike come from different tables or passages of the source.
What was measured:
[1] = molecular target: T1, EcThrRS_G463A (Escherichia coli, UniProt P0A8M3, G463A); experiment: Thermal shift assay (TSA); assay type: binding
T1 construct: The E. coli ThrRS (residues 242-642, Supplementary Note 1) wild type; 6xHis (C); made in house; host or cells: E. coli BL21 (DE3)
Description: (§1) The EcThrRS_WT and L489M/G463S/G463S_Q484A/G463A/A316N mutant proteins, ObaO_WT and ObaO_S464G mutant proteins were prepared at 2 μM in buffer containing 25 mM Tris-HCl pH 7.5, 200 mM NaCl, and 20 μM OB (GlpBio, US) or BN (GlpBio, US) or ddH2O in equal volumes since the compounds were diluted with ddH2O to 1 mM as stocks. […] SYPRO orange dye (Sigma, USA) was diluted in assay buffer containing 25 mM Tris-HCl pH 7.5 and 200 mM NaCl to a 40× concentration, and was added to the mixture to a final 4× concentration. Aliquots (20 μL) were added to a 96-well PCR plate. After complete mixing, the final solutions were heated from 25 to 95 °C at a rate of 0.015 °C/s, and fluorescence signals were monitored by QuantStudio 3 (Applied Biosystems by Thermo Fisher Scientific, USA). The melting temperature (Tm) was calculated through a previously established method[56],[57].

[2] = molecular target: T2, EcThrRS_G463S (Escherichia coli, UniProt P0A8M3, G463S); experiment: Thermal shift assay (TSA); assay type: binding
T2 construct: The E. coli ThrRS (residues 242-642, Supplementary Note 1) wild type; 6xHis (C); made in house; host or cells: E. coli BL21 (DE3)
Description: as §1

[3] = molecular target: T1, EcThrRS_G463A; experiment: ATP hydrolysis assay; assay type: biochemical; settings: for ATP hydrolysis activity, inhibitory curve data point: BN, replicates, sheet Fig.7d
Description: (§2) 200 nM EcThrRS wide type and mutants, ObaO and ObaO_S464G mutant were incubated with serially diluted OB (0 to 10 μM for EcThrRS, 0 to 40 μM for ObaO) in a buffer containing 25 mM HEPES pH 7.5, 50 mM NaCl, 40 mM MgCl2, 30 mM KCl, 0.01 mg/mL bovine serum albumin (BSA), and 0.004% Tween-20 at 37 °C for 4 h and then mixed 1:1 with a substrate mixture containing 4 μM ATP, 40 μM L-threonine, 25 mM HEPES pH 7.5, 50 mM NaCl, 40 mM MgCl2, 30 mM KCl, 0.01 mg/mL BSA, and 0.004% Tween-20. The ATP hydrolysis reaction was performed at 37 °C for 4 h.
(§3) After incubation, the detection solution from the Kinase-Glo® luminescent kit (Promega, USA) was added to the reaction system at a 1:1 ratio, and the mixture was gently shaken for 10 min. The chemiluminescence signal was measured using a microplate reader (Tecan, USA). All experiments were performed in four replicates. The data were processed using GraphPad Prism 8 software.

[4] = molecular target: T3, EcThrRS_WT (Escherichia coli, UniProt P0A8M3); experiment: ATP hydrolysis assay; assay type: biochemical; settings: for ATP hydrolysis activity, inhibitory curve data point: BN, replicates, sheet Fig.7d
T3 construct: The E. coli ThrRS (residues 242-642, Supplementary Note 1) wild type; 6xHis (C); made in house; host or cells: E. coli BL21 (DE3)
Description: as §2, §3

[5] = molecular target: T2, EcThrRS_G463S; experiment: ATP hydrolysis assay; assay type: biochemical
Description: as §2, §3

[6] = molecular target: T2, EcThrRS_G463S; experiment: ATP hydrolysis assay; assay type: biochemical; settings: BN, replicates, sheet Fig.7d
[7] = 2 μM protein, 20 μM compound, mean n = 4, read-out: ΔTm (increase of Tm)

T2 sequence (P0A8M3 242-642 G463S): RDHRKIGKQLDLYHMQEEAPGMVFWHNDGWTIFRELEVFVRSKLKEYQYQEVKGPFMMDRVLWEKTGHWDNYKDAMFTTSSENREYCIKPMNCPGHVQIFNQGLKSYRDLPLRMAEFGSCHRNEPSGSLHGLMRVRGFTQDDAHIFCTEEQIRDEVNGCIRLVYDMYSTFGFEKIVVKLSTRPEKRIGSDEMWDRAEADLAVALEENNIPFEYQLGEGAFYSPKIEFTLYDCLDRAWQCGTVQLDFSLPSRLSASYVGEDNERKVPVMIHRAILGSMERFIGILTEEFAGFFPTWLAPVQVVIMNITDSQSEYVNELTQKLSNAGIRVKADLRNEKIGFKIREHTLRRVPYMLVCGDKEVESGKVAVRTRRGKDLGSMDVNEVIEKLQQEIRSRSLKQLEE
T1 sequence (P0A8M3 242-642 G463A): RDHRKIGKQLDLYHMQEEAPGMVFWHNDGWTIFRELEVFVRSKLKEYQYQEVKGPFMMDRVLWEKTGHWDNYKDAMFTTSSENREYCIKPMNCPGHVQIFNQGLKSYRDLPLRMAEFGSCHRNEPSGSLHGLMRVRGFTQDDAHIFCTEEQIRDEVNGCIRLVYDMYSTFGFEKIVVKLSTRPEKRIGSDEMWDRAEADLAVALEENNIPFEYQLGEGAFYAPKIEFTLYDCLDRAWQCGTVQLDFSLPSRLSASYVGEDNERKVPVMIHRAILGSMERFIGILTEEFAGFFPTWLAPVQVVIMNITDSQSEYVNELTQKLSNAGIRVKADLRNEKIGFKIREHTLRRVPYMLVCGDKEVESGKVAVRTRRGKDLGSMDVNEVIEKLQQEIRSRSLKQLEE
T3 sequence (P0A8M3 242-642): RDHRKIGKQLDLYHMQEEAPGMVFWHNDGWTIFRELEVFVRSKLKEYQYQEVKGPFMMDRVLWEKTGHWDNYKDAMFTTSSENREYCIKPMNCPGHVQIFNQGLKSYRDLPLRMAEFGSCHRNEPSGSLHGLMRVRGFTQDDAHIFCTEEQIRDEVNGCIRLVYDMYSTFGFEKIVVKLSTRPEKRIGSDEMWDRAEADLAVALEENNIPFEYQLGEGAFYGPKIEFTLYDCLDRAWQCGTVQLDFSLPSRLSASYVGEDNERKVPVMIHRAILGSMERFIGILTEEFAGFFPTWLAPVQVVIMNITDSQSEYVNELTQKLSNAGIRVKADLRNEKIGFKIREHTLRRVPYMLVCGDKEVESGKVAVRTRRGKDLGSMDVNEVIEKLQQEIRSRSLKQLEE

SMILES: C[C@@H]1C[C@H](C)C[C@H](C)[C@@H](O)CC(=O)O[C@H]([C@@H]2CCC[C@H]2C(=O)O)C/C=C/C=C(/C#N)[C@H](O)[C@@H](C)C1 [BN, borrelidin]
- ΔTm at 20 µM [1, 7]: 19.1 °C
- ΔTm at 20 µM ([1]; source data sheet Fig.7c, ThrRS_G463A, read-out: ΔTm, single replicates): 19.1 °C
- ΔTm at 20 µM [2, 7]: 17.4 °C
- ΔTm at 20 µM ([2]; source data sheet Fig.7c, ThrRS_G463S, read-out: ΔTm, single replicates): 17.3 °C
- decrease of inhibitory effect vs EcThrRS_WT ([3]; 2 μM ATP and 20 μM L-Thr): more than 20 fold
- ATP hydrolysis activity, inhibitory curve data point ([3]; Log10 Conc. 1.477, G463A): 95.000 and 86.999 and 114.196 and 92.149
- ATP hydrolysis activity, inhibitory curve data point ([3]; Log10 Conc. 2.000, G463A): 87.423 and 89.051 and 94.722 and 94.776
- ATP hydrolysis activity, inhibitory curve data point ([3]; Log10 Conc. 2.477, G463A): 87.400 and 82.253 and 93.320 and 93.112
- ATP hydrolysis activity, inhibitory curve data point ([3]; Log10 Conc. 3.000, G463A): 81.982 and 81.596 and 85.557 and 86.320
- ATP hydrolysis activity, inhibitory curve data point ([3]; Log10 Conc. 3.477, G463A): 63.653 and 64.234 and 69.634 and 68.650
- ATP hydrolysis activity, inhibitory curve data point ([3]; Log10 Conc. 4.000, G463A): 68.712 and 73.186 and 66.040 and 70.648
- ATP hydrolysis activity, inhibitory curve data point ([4]; Log10 Conc. 1.477, WT): 101.322 and 78.096 and 79.643 and 84.982
- ATP hydrolysis activity, inhibitory curve data point ([4]; Log10 Conc. 2.000, WT): 101.576 and 82.194 and 100.286 and 100.117
- ATP hydrolysis activity, inhibitory curve data point ([4]; Log10 Conc. 2.477, WT): 72.956 and 78.844 and 97.078 and 88.856
- ATP hydrolysis activity, inhibitory curve data point ([4]; Log10 Conc. 3.000, WT): -7.239 and -12.609 and 12.089 and 13.133
- ATP hydrolysis activity, inhibitory curve data point ([4]; Log10 Conc. 3.477, WT): -29.715 and 1.779 and -2.712 and 18.045
- ATP hydrolysis activity, inhibitory curve data point ([4]; Log10 Conc. 4.000, WT): -14.823 and -17.346 and -12.025 and -9.555
- IC50 ([4]; in the presence of 2 μM ATP and 20 μM L-Thr): 559 nM
- decrease of inhibitory effect vs EcThrRS_WT ([5]; 2 μM ATP and 20 μM L-Thr): more than 20 fold
- ATP hydrolysis activity, inhibitory curve data point ([5]; BN, Log10 Conc. 3.477, G463S, replicates, sheet Fig.7d): 72.021 and 67.252 and 61.642 and 63.732
- ATP hydrolysis activity, inhibitory curve data point ([6]; Log10 Conc. 1.477, G463S): 98.112 and 97.245 and 94.519 and 96.966
- ATP hydrolysis activity, inhibitory curve data point ([6]; Log10 Conc. 2.000, G463S): 96.048 and 91.632 and 90.284 and 92.020
- ATP hydrolysis activity, inhibitory curve data point ([6]; Log10 Conc. 2.477, G463S): 91.563 and 88.959 and 88.970 and 89.661
- ATP hydrolysis activity, inhibitory curve data point ([6]; Log10 Conc. 3.000, G463S): 84.928 and 77.254 and 80.440 and 82.267
- ATP hydrolysis activity, inhibitory curve data point ([6]; Log10 Conc. 4.000, G463S): 53.455 and 58.497 and 57.343 and 60.957

Source: PMC11252418, “Specific glycine-dependent enzyme motion determines the potency of conformation selective inhibitors of threonyl-tRNA synthetase” (Communications Biology, 2024)
